Here are results for 18 molecules from patent US20150038527A1, “FUROPYRIDINE DERIVATIVES” (Merck Patent GmbH, priority 2012, published 2015).

The target of one series is T1, SYK (Homo sapiens, UniProt P43405).
T1 construct: 2.5 nM SYK, 400 nM Biotin-Aha-Aha-KEDPDYEWPSAKK and 10 μM ATP
In words: SYK Flash Plate Assay (enzyme assay). The format is biochemical.

Another series deals with murine model of RA. The following applies: cited from earlier work.
For another series, the system named is RA. Particulars: RA Phase II studies in humans; cited from earlier work.

In the case of `CCc1ccc(OC)c(-c2cc3nccc(-c4cc(CC)ccc4OC)c3o2)c1` [Compound A30, 2,7-bis-(5-ethyl-2-methoxy-phenyl)-furo[3,2-b]pyridine], the IC50 (commonly the concentration that inhibits the measured activity by half) at SYK was 3000 to 50000 nM. Same read-out and setting: in the case of `COc1cc(-c2cc3nccc(-c4ccnc(O)c4)c3o2)cc(OC)c1OC` [Compound A39, 4-[2-(3,4,5-trimethoxy-phenyl)-furo[3,2-b]pyridin-7-yl]-pyridin-2-ol] it was 300 to 3000 nM; in that of `CCc1ccccc1-c1cc2nccc(-c3cccc(C(=O)N[C@@H]4CCCC[C@@H]4N)c3)c2o1` [Compound A49, N-((1R,2S)-2-amino-cyclohexyl)-3-[2-(2-ethyl-phenyl)-furo[3,2-b]pyridin-7-yl]-benzamide], 3000 to 50000 nM. On the same count and under the same terms, under `CCc1ccc(OC)c(-c2cc3nccc(-c4ccc5[nH]cnc5c4)c3o2)c1` [Compound A41, 7-(1H-benzoimidazol-5-yl)-2-(5-ethyl-2-methoxy-phenyl)-furo[3,2-b]pyridine] stands 300 to 3000 nM. Turning to `Cc1ccc(S(N)(=O)=O)cc1-c1cc2nccc(-c3cccc(C(=O)N[C@@H]4CCCC[C@@H]4N)c3)c2o1` [Compound A50, N-((1R,2S)-2-amino-cyclohexyl)-3-[2-(2-methyl-5-sulfamoyl-phenyl)furo[3,2-b]pyridin-7-yl]-benzamide], the IC50 on SYK is 300 to 3000 nM. The molecule `COc1ccc(CNCCN)cc1-c1ccnc2cc(-c3cc(OC)c(OC)c(OC)c3)oc12` [Compound A4, N1-{4-methoxy-3-[2-(3,4,5-trimethoxy-phenyl)-furo[3,2-b]pyridin-7-yl]-benzyl}-ethane-1,2-diamine] displayed a half-inhibitory concentration (IC50) on SYK of 300 to 3000 nM. Consider `COc1cc(-c2cc3nccc(-c4c(OC)cncc4OC)c3o2)cc(OC)c1OC` [Compound A103, 7-(3,5-dimethoxy-pyridin-4-yl)-2-(3,4,5-trimethoxy-phenyl)-furo[3,2-b]pyridine], for which, on SYK, the IC50 was less than 100 nM.

Molecule `COc1ccc(C(N)=O)cc1-c1cc2nccc(-c3cc[nH]n3)c2o1` [Compound A72, 4-methoxy-3-[7-(1H-pyrazol-3-yl)-furo[3,2-b]pyridin-2-yl]-benzamide] registered a half-inhibitory concentration (IC50) at SYK of less than 100 nM. Molecule `COc1cc(-c2cc3nccc(-c4cc(C)cc(C(=O)NCCN)c4)c3o2)cc(OC)c1OC` [Compound A56, N-(2-amino-ethyl)-3-methyl-5-[2-(3,4,5-trimethoxy-phenyl)-furo[3,2-b]pyridin-7-yl]-benzamide] displayed an IC50 against SYK of 300 to 3000 nM. Consider `N[C@H]1CCCC[C@H]1NC(=O)c1cccc(-c2ccnc3cc(-c4cccc5c4OCO5)oc23)c1` [Compound A60, N-((1R,2S)-2-amino-cyclohexyl)-3-(2-benzo[1,3]dioxol-4-yl-furo[3,2-b]pyridin-7-yl)-benzamide], for which the half-inhibitory concentration (IC50) on SYK is 300 to 3000 nM.

On to `COc1ccc(C(N)=O)cc1-c1cc2nccc(-c3cnc[nH]3)c2o1` [Compound A93, 3-[7-(3H-imidazol-4-yl)-furo[3,2-b]pyridin-2-yl]-4-methoxy-benzamide], for which the half-inhibitory concentration (IC50) against SYK was 100 to 300 nM. On the same count and under the same terms, in the case of `COc1ccc(-c2noc(=O)[nH]2)cc1-c1cc2nccc(-c3cc[nH]n3)c2o1` [Compound A105, 3-{4-methoxy-3-[7-(1H-pyrazol-3-yl)-furo[3,2-b]pyridin-2-yl]-phenyl}-4H-[1,2,4]oxadiazol-5-one] it was less than 100 nM; in that of `COc1cc(-c2cc3nccc(-c4nnc(CCN)o4)c3o2)cc(OC)c1OC` [Compound A102, 2-{5-[2-(3,4,5-trimethoxy-phenyl)-furo[3,2-b]pyridin-7-yl]-[1,3,4]oxadiazol-2-yl}-ethylamine], 3000 to 50000 nM; in that of `CCc1ccc(OC)c(-c2cc3nccc(-c4cccc(C(=O)N[C@@H]5CCCC[C@@H]5N)c4)c3o2)c1` [Compound A43, N-((1R,2S)-2-amino-cyclohexyl)-3-[2-(5-ethyl-2-methoxy-phenyl)-furo[3,2-b]pyridin-7-yl]-benzamide], 300 to 3000 nM. On to `COc1ccc(-c2nnn[nH]2)cc1-c1cc2nccc(-c3c(OC)cccc3OC)c2o1` [Compound A84, 7-(2,6-dimethoxy-phenyl)-2-[2-methoxy-5-(1H-tetrazol-5-yl)-phenyl]-furo[3,2-b]pyridine], for which the concentration for half-maximal inhibition (IC50) at SYK is less than 100 nM. As for `COc1cc(-c2cc3nccc(C(N)=O)c3o2)cc(OC)c1OC` [Compound A98, 2-(3,4,5-trimethoxy-phenyl)-furo[3,2-b]pyridine-7-carboxylic acid amide], on SYK, the IC50 is 300 to 3000 nM. As for `COc1cc(Nc2ncc(F)c(Nc3ccc4c(n3)NC(=O)C(C)(C)O4)n2)cc(OC)c1OC` [Compound R406], in the series with murine model of RA, the bone erosion entry was “significantly reduced”, the clinical scores result is given as “significant improvement of clinical scores” and the serum cytokine concentrations entry was “significantly reduced serum cytokine concentrations”. In addition, in the series with RA, the “efficacy (ACR scores)” value is recorded as “efficacy (ACR scores improvement)” and the tolerability result was “good tolerability”. Molecule `COc1ccc(C#N)cc1-c1cc2nccc(-c3cc[nH]n3)c2o1` [Compound A88, 4-methoxy-3-[7-(1H-pyrazol-3-yl)-furo[3,2-b]pyridin-2-yl]-benzonitrile] returned an IC50 against SYK of less than 100 nM.
